This data set is described as follows: in vivo. The settings on record: Sprague-Dawley, rat, po, 1.2 mg/kg.

With `CC(C)C[C@H](NC(=O)CNC(=O)c1cc(Cl)ccc1Cl)B(O)O` [IXAZOMIB], the bioavailability (as a rule, the share of a dose that reaches the circulation, judged against a reference dose that is usually intravenous) came to 27.8%.

Source of the values: ChEMBL document CHEMBL4229412, “Design, synthesis, in vitro and in vivo evaluation, and structure-activity relationship (SAR) discussion of novel dipeptidyl boronic acid proteasome inhibitors as orally available anti-cancer agents for the treatment of multiple myeloma and mechanism studies” (Bioorg Med Chem, 2018).
